Assay results reported in patent publication US20070196406A1, “1,3-Dimethylbutyl carboxanilides for controlling undesirable micro-organisms” (priority 2003, published 2007).

System: Sphaerotheca fuliginea
Assay: Sphaerotheca test (cucumber)/protective
Type: in vivo
Settings: cucumber plants, protective spray, 750 g/ha, evaluation 7 days after inoculation
Procedure: Sphaerotheca Test (Cucumber)/Protective
Solvent: 49 parts by weight of N,N-dimethylformamide
Emulsifier: 1 part by weight of alkylaryl polyglycol ether
To produce a suitable preparation of active compound, 1 part by weight of active compound is mixed with the stated amounts of solvent and emulsifier, and the concentrate is diluted with water to the desired concentration.
To test for protective activity, young cucumber plants are sprayed with the preparation of active compound at the stated application rate. One day after the treatment, the plants are inoculated with a spore suspension of Sphaerotheca fuliginea. The plants are then placed in a greenhouse at 70% relative atmospheric humidity and a temperature of 23° C.
Evaluation is carried out 7 days after the inoculation. 0% means an efficacy which corresponds to that of the control, whereas an efficacy of 100% means that no infection is observed.

Cc1sccc1C(=O)Nc1ccc(F)cc1C(C)CC(C)C (stereo not drawn) [drawing 133]
Efficacy in %: 100%

CC(C)CC(C)c1cc(F)ccc1NC(=O)c1cn(C)nc1C(F)(F)F (stereo not drawn) [drawing 132]
Efficacy in %: 100%

CC(C)CC(C)c1ccccc1NC(=O)c1cn(C)nc1Cl (stereo not drawn) [drawing 131]
Efficacy in %: 100%
